Data: the supplement of paper PMC10307832

Assays:
Test in all cases: relative viability (nuclei count vs DMSO), 5 days (fraction); higher = more cells survive
NCI-H2085 = test system: NCI-H2085
In short: (§1)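 Nuclei were stained with Hoechst during a one-step fixation (final 0.05% Triton X-100, 1% formaldehyde, 1 ug/ml Hoechst) carried out 5 days after dosing, then counted on 4× images. The cells, lung cancer lines in 1536-well plates, had been dosed by pin tool the day after seeding with one drug alone or a fixed anchor-drug dose plus five library-drug doses (not always all listed) in √10 steps. Relative viability is the nuclei count in treated wells divided by that in vehicle wells, and each value is the median of duplicate plates.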

NCI-H520 = test system: NCI-H520
In short: as §1

SK-MES-1 = test system: SK-MES-1
In short: as §1

HCC-827 = test system: HCC-827
In short: as §1

NCI-H1395 = test system: NCI-H1395
In short: as §1

H3255 = test system: H3255
In short: as §1

ChaGo-K-1 = test system: ChaGo-K-1
In short: as §1

NCI-H2023 = test system: NCI-H2023
In short: as §1

NCI-H838 = test system: NCI-H838
In short: as §1

EMC-BAC-2 = test system: EMC-BAC-2
In short: as §1

HCC-44 = test system: HCC-44
In short: as §1

EPLC-272H = test system: EPLC-272H
In short: as §1

LU99A = test system: LU99A
In short: as §1

NCI-H1563 = test system: NCI-H1563
In short: as §1

NCI-H2087 = test system: NCI-H2087
In short: as §1

NCI-H1793 = test system: NCI-H1793
In short: as §1

COR-L23 = test system: COR-L23
In short: as §1

LCLC-103H = test system: LCLC-103H
In short: as §1

NCI-H2405 = test system: NCI-H2405
In short: as §1

NCI-H1651 = test system: NCI-H1651
In short: as §1

NCI-H1944 = test system: NCI-H1944
In short: as §1

NCI-H650 = test system: NCI-H650
In short: as §1

`Cc1sc2c(c1C)C(c1ccc(Cl)cc1)=N[C@@H](CC(=O)OC(C)(C)C)c1nnc(C)n1-2` [JQ1] + CCNC(=O)c1noc(-c2cc(C(C)C)c(O)cc2O)c1-c1ccc(CN2CCOCC2)cc1 [Luminespib] (partner 0.01 µM) showed a relative viability (NCI-H2085; first compound 0.04 µM) of 0.387, a relative viability (NCI-H2085; first compound 0.1265 µM) of 0.434 and a relative viability (NCI-H2085; first compound 0.4 µM) of 0.386. For the same compound, the relative viability (NCI-H2085; first compound 1.265 µM) was 0.248, the relative viability (NCI-H2085; first compound 4 µM) was 0.182 and the relative viability (NCI-H520; first compound 0.04 µM) was 0.224. It also gave a relative viability (NCI-H520; first compound 0.1265 µM) of 0.244, a relative viability (NCI-H520; first compound 0.4 µM) of 0.218 and a relative viability (NCI-H520; first compound 1.265 µM) of 0.25. For the same compound, the relative viability (NCI-H520; first compound 4 µM) was 0.229, the relative viability (SK-MES-1; first compound 0.04 µM) was 0.756 and the relative viability (SK-MES-1; first compound 0.1265 µM) was 0.581. For the same compound, the relative viability (SK-MES-1; first compound 0.4 µM) was 0.317, the relative viability (SK-MES-1; first compound 1.265 µM) was 0.163 and the relative viability (SK-MES-1; first compound 4 µM) was 0.173. For the same compound, the relative viability (HCC-827; first compound 0.04 µM) was 0.887, the relative viability (HCC-827; first compound 0.4 µM) was 0.424 and the relative viability (HCC-827; first compound 1.265 µM) was 0.624. The relative viability (HCC-827; first compound 4 µM) was 0.59, the relative viability (NCI-H1395; first compound 0.04 µM) was 0.761 and the relative viability (NCI-H1395; first compound 0.1265 µM) was 0.681. It also gave a relative viability (NCI-H1395; first compound 0.4 µM) of 0.808, a relative viability (NCI-H1395; first compound 1.265 µM) of 0.399 and a relative viability (NCI-H1395; first compound 4 µM) of 0.458. For the same compound, the relative viability (H3255; first compound 0.04 µM) was 0.904, the relative viability (H3255; first compound 0.1265 µM) was 0.699 and the relative viability (H3255; first compound 0.4 µM) was 1.01. The relative viability (H3255; first compound 1.265 µM) was 0.768, the relative viability (H3255; first compound 4 µM) was 0.416 and the relative viability (ChaGo-K-1; first compound 0.04 µM) was 0.77. It also gave a relative viability (ChaGo-K-1; first compound 0.1265 µM) of 0.503, a relative viability (ChaGo-K-1; first compound 0.4 µM) of 0.452 and a relative viability (ChaGo-K-1; first compound 1.265 µM) of 0.322. It also gave a relative viability (ChaGo-K-1; first compound 4 µM) of 0.285, a relative viability (NCI-H2023; first compound 0.04 µM) of 0.731 and a relative viability (NCI-H2023; first compound 0.1265 µM) of 0.67. It also gave a relative viability (NCI-H2023; first compound 0.4 µM) of 0.358, a relative viability (NCI-H2023; first compound 1.265 µM) of 0.107 and a relative viability (NCI-H2023; first compound 4 µM) of 0.146. For the same compound, the relative viability (NCI-H838; first compound 0.04 µM) was 0.289, the relative viability (NCI-H838; first compound 0.1265 µM) was 0.288 and the relative viability (NCI-H838; first compound 0.4 µM) was 0.222. The relative viability (NCI-H838; first compound 1.265 µM) was 0.161, the relative viability (NCI-H838; first compound 4 µM) was 0.144 and the relative viability (EMC-BAC-2; first compound 0.04 µM) was 1.16. The relative viability (EMC-BAC-2; first compound 0.1265 µM) was 1.09, the relative viability (EMC-BAC-2; first compound 0.4 µM) was 0.925 and the relative viability (EMC-BAC-2; first compound 1.265 µM) was 0.472. For the same compound, the relative viability (EMC-BAC-2; first compound 4 µM) was 0.477, the relative viability (HCC-44; first compound 0.04 µM) was 0.968 and the relative viability (HCC-44; first compound 0.1265 µM) was 0.433. The relative viability (HCC-44; first compound 0.4 µM) was 0.551, the relative viability (HCC-44; first compound 1.265 µM) was 0.388 and the relative viability (HCC-44; first compound 4 µM) was 0.153. It also gave a relative viability (EPLC-272H; first compound 0.04 µM) of 0.451, a relative viability (EPLC-272H; first compound 0.1265 µM) of 0.332 and a relative viability (EPLC-272H; first compound 0.4 µM) of 0.238. The relative viability (EPLC-272H; first compound 1.265 µM) was 0.179, the relative viability (EPLC-272H; first compound 4 µM) was 0.189 and the relative viability (LU99A; first compound 0.04 µM) was 0.285. For the same compound, the relative viability (LU99A; first compound 0.1265 µM) was 0.246, the relative viability (LU99A; first compound 0.4 µM) was 0.266 and the relative viability (LU99A; first compound 1.265 µM) was 0.173. It also gave a relative viability (LU99A; first compound 4 µM) of 0.179, a relative viability (NCI-H1563; first compound 0.04 µM) of 0.565 and a relative viability (NCI-H1563; first compound 0.1265 µM) of 0.478. The relative viability (NCI-H1563; first compound 0.4 µM) was 0.449, the relative viability (NCI-H1563; first compound 1.265 µM) was 0.447 and the relative viability (NCI-H1563; first compound 4 µM) was 0.491. For the same compound, the relative viability (NCI-H2087; first compound 0.04 µM) was 0.122, the relative viability (NCI-H2087; first compound 0.1265 µM) was 0.171 and the relative viability (NCI-H2087; first compound 0.4 µM) was 0.173. It also gave a relative viability (NCI-H2087; first compound 1.265 µM) of 0.129, a relative viability (NCI-H2087; first compound 4 µM) of 0.178 and a relative viability (NCI-H1793; first compound 0.04 µM) of 0.155. For the same compound, the relative viability (NCI-H1793; first compound 0.1265 µM) was 0.209, the relative viability (NCI-H1793; first compound 0.4 µM) was 0.197 and the relative viability (NCI-H1793; first compound 1.265 µM) was 0.318. It also gave a relative viability (NCI-H1793; first compound 4 µM) of 0.253, a relative viability (COR-L23; first compound 0.04 µM) of 0.649 and a relative viability (COR-L23; first compound 0.1265 µM) of 0.6. For the same compound, the relative viability (COR-L23; first compound 0.4 µM) was 0.504, the relative viability (COR-L23; first compound 1.265 µM) was 0.207 and the relative viability (COR-L23; first compound 4 µM) was 0.114. The relative viability (LCLC-103H; first compound 0.04 µM) was 0.973, the relative viability (LCLC-103H; first compound 0.1265 µM) was 0.85 and the relative viability (LCLC-103H; first compound 0.4 µM) was 0.533. It also gave a relative viability (LCLC-103H; first compound 1.265 µM) of 0.47, a relative viability (LCLC-103H; first compound 4 µM) of 0.358 and a relative viability (NCI-H2405; first compound 0.04 µM) of 0.795. It also gave a relative viability (NCI-H2405; first compound 0.1265 µM) of 0.637, a relative viability (NCI-H2405; first compound 0.4 µM) of 0.963 and a relative viability (NCI-H2405; first compound 1.265 µM) of 0.719. It also gave a relative viability (NCI-H2405; first compound 4 µM) of 0.655, a relative viability (NCI-H1651; first compound 0.04 µM) of 0.865 and a relative viability (NCI-H1651; first compound 0.1265 µM) of 0.997. It also gave a relative viability (NCI-H1651; first compound 0.4 µM) of 0.768, a relative viability (NCI-H1651; first compound 1.265 µM) of 0.369 and a relative viability (NCI-H1651; first compound 4 µM) of 0.375. It also gave a relative viability (NCI-H1944; first compound 0.04 µM) of 0.73, a relative viability (NCI-H1944; first compound 0.1265 µM) of 0.632 and a relative viability (NCI-H1944; first compound 0.4 µM) of 0.451. The relative viability (NCI-H1944; first compound 1.265 µM) was 0.37, the relative viability (NCI-H1944; first compound 4 µM) was 0.353 and the relative viability (NCI-H650; first compound 0.04 µM) was 0.743. For the same compound, the relative viability (NCI-H650; first compound 0.1265 µM) was 0.7, the relative viability (NCI-H650; first compound 0.4 µM) was 0.546 and the relative viability (NCI-H650; first compound 1.265 µM) was 0.203. The relative viability (NCI-H650; first compound 4 µM) was 0.212.
